In paper PMC4900566, “Pharmacokinetic-Pharmacodynamic Analysis on Inflammation Rat Model after Oral Administration of Huang Lian Jie Du Decoction” (PLoS ONE, 2016):
Where two headings read alike, the source gives them in different places. Values belong to the molecule of their own block, whether it stands above or below them.

Tests used:
[1] = Hepatic first-pass effect / hepatic clearance rate (jugular vs pyloric vein AUC0-t) in inflamed rats; assay type: in vivo, Sprague-Dawley rats; settings: inflamed rats (G5, n = 5), oral HLJDD; HCR% = 100×(AUC0−t pyloric vein − AUC0−t jugular vein)/AUC0−t pyloric vein
Protocol: (§1) For the PK-PD analysis, cannulas were implanted in each rat’s jugular vein (n = 22). To study the hepatic first-pass effect (HFPE), the jugular vein and the pyloric vein of each rat (n = 5) were cannulated according to the method described by Hye J. Chung et al. with slight modifications. Instead of the portal vein, the pyloric vein was cannulated to minimize the interference of blood flow in the portal vein [41]. The surgery was performed under anesthesia (3% chloral hydrate solution, intraperitoneal injection; 3.5 mL/kg) 5 days prior to the experiment. Rats with jugular vein intubation surgery were divided into four groups: a control group with HLJDD (G1, n = 6), aninflammatory group with HLJDD (G2, n = 6), aninflammatory group with physiological saline (G3, n = 5) and another inflammatory group with HLJDD (G4, n = 5). G1 and G2 were used for the pharmacokinetic study, while G3 and G4 were used for the pharmacodynamic study. Rats with jugular and pyloric vein cannulation for HFPE analysis were assigned to another inflammatory group with HLJDD (G5, n = 5).
The prepared HLJDD-EP solution was administered to the rats (G1, G2, G4 and G5) at 2 mL/100g body weight (crude material content: 3.5 g/kg) by oral gavage, and the G3 group was given the same volume of physiological saline. In the G1 and G2 groups, blood specimens (300 μL) were obtained before dosing and subsequently at 5 min, 10 min, 30 min, 1, 2, 4, 6, 8, 12, 24, 36 and 48 h after the oral administration of HLJDD-EP solution. In the G3 and G4 groups, blood samples (300 μL) were collected prior to dosing and followed at 10 min, 30 min, 1, 2, 4, 8, 24 and 48 h after drug administration. The rectal temperature of rats in the G3 and G4 groups was immediately monitored after each collection of blood. For the HFPE assay, blood specimens (150 μL) from both the jugular vein and the pyloric vein of the G5 rats were simultaneously taken before dosing and subsequently at 5 min, 10 min, 30 min, 1, 2, 4, 6, 8, 12, 24, 36 and 48 h after oral administration. Samples were collected in heparinized Eppendorf tubes and centrifuged at 3000 rpm for 15 min. The plasma was stored at -80°C until assay.
For the pharmacokinetic investigation and HFPE analysis, 100 μL aliquots of plasma were mixed with 5 μL of ascorbic acid (dissolved in physiological saline, w/v: 1 g/100 mL) and 200 μL of methanol (containing an internal standard stock solution with 80.0 ng/mL swertiamarin, 1.5 ng/mL corynoline and 33.0 ng/mL icariin), followed by vortexing and centrifuging at 15000 rpm for 20 min to remove the precipitate. The supernatant was dried with nitrogen at 40°C. […] The supernatant was analyzed using Agilent 1290 ultra-high performance liquid chromatography coupled with an Agilent 6490 Triple Quadrupole Mass Spectrometer (Agilent Technologies, Palo Alto, CA, USA).
Pharmacokinetic parameters of the determined compounds were processed by the non-compartmental method using Phoenix Winnonlin software (Pharsight Corporation, USA). […] The mean residence time (MRT) was determined as AUMC/AUC. The plasma half-life (HLλz), maximum plasma concentration (Cmax), the time to reach Cmax (Tmax) and other parameters following the administration of HLJDD were determined from the observed data. […] Concentrations of cytokines were analyzed by cytometric bead array software (FCAP Array version 3.0, BD Bioscience). All the data were expressed as the mean±standard deviation (SD). […]

[2] = Pharmacokinetics of HLJDD components in rat plasma after oral administration of HLJDD (LC-QqQ-MS, non-compartmental); assay type: in vivo, Sprague-Dawley rats; settings: oral HLJDD extract; for AUC%Extrap / AUMClast / Cmax1 / Cmax2 / HLλz / Tmax1 / Tmax2 / AUC(0-inf) / AUC(0-t) / MRT last / CL/F / Vd/F / AUCinf / AUClast / MRTlast / Vz/F: crude material 3.5 g/kg, plasma, n = 6; for Vd/F: read-out: Vz/F
Protocol: The rats were acclimatized to the facilities for 5 days and screened via the continuous determination of the rectal temperature for two days. […] The control group G1 was injected with the same volume of physiological saline. The ethics committees of Cisco North Biotechnology Co., Ltd. (Beijing, China) and the China Academy of Chinese Medical Sciences (Beijing, China) approved the experimental protocol.
as §1
The prepared HLJDD-EP solution was administered to the rats (G1, G2, G4 and G5) at 2 mL/100g body weight (crude material content: 3.5 g/kg) by oral gavage, and the G3 group was given the same volume of physiological saline. […] The rectal temperature of rats in the G3 and G4 groups was immediately monitored after each collection of blood. […] Samples were collected in heparinized Eppendorf tubes and centrifuged at 3000 rpm for 15 min. The plasma was stored at -80°C until assay.
The supernatant was dried with nitrogen at 40°C. The residue was re-dissolved in 100 μL of methanol and centrifuged at 15000 rpm for 10 min.
Liquid chromatographic separations of the analytes were performed using a Thermo Scientific Hypersil GOLD column (50 mm× 2.1 mm, 1.9 μm). The mobile phase consisted of acetonitrile (solvent A) and 0.1% formic acid in water (solvent B). […] The flow rate was 0.3 mL/min. The injection volume was 2 μL. […] The optimized ESI source parameters were as follows: gas temperature, 200°C; gas flow, 14 L/min; nebulizer pressure, 20 psi; sheath gas temperature, 400°C; and sheath gas flow, 11 L/min. Analytes were quantitated by monitoring the precursor-product combination in the DMRM mode using ion polarity switching (flavonoids and alkaloids were determined in the positive mode, while iridoids were detected in the negative mode). To ensure the desired abundance of each compound, the CE values and other parameters were optimized and illustrated as follows: cycle time, 300 ms; positive capillary voltage, 3000 v; negative capillary voltage, 2000 v; positive nozzle voltage, 1500 v; negative nozzle voltage, 1000 v; Delta EMV(+), 200 v; Delta EMV(-), 200 v. The optimized mass transition ion pairs (m/z) for analytes and the detection of the conditions of the compounds are shown in S1 Table.
Pharmacokinetic parameters of the determined compounds were processed by the non-compartmental method using Phoenix Winnonlin software (Pharsight Corporation, USA). Linear trapezoidal integration was used to calculate areas under the concentration-time curves (AUC) and areas under the first moment curves (AUMC). The mean residence time (MRT) was determined as AUMC/AUC. The plasma half-life (HLλz), maximum plasma concentration (Cmax), the time to reach Cmax (Tmax) and other parameters following the administration of HLJDD were determined from the observed data. The HFPE was defined as HCR: HCR% = 100×(AUC0−t in the pyloric vein-AUC0−t in the jugular vein)/AUC0−t in the pyloric vein.

[3] = male, Sprague-Dawley, rat, po, 3.5 g/kg, inflamed rats (group M)
[4] = male, Sprague-Dawley, rat, po, 3.5 g/kg, normal rats (group B)

Compound: COc1cc(O[C@@H]2O[C@H](C(=O)O)[C@@H](O)[C@H](O)[C@H]2O)c2c(=O)cc(-c3ccccc3)oc2c1O[C@@H]1O[C@H](C(=O)O)[C@@H](O)[C@H](O)[C@H]1O [F4, 5,8-dihyroxy-7-methoxy flavone-5,8-di-O-glucuronide]
hepatic clearance rate (HCR) [1]: approximately zero

Compound: COc1cc(O)c2c(=O)cc(-c3ccccc3)oc2c1O[C@@H]1O[C@H](C(=O)O)[C@@H](O)[C@H](O)[C@H]1O [F7, 5,8-dihyroxy-7-methoxy flavone-8-O-glucuronide]
hepatic clearance rate (HCR) [1]: approximately zero

Compound: COc1c(O)cc(O)c2c(=O)cc(-c3ccccc3)oc12 [wogonin]
AUC%Extrap ([2]; inflamed rats (group M)): 1.3±0.7%
AUMClast ([2]; inflamed rats (group M)): 442.5±232.9 h*h*ng/ml
Cmax1 ([2]; inflamed rats (group M)): 3.3 ± 0.7 ng/mL
Cmax2 ([2]; inflamed rats (group M)): 4.3 ± 1.8 ng/mL
HLλz ([2]; inflamed rats (group M)): 7.1 ± 2.7 h
Tmax1 ([2]; inflamed rats (group M)): 4.8 ± 0 min
Tmax2 ([2]; inflamed rats (group M)): 7.3 ± 2.7 h
mean AUClast, fold larger in the inflamed group than in the control group ([2]; inflamed vs normal rats): 5.4 fold
AUC(0-inf) [2, 3]: 39.2 ± 8 ng·h/mL
AUC(0-t) [2, 3]: 38.7 ± 8.1 ng·h/mL
MRT last [2, 3]: 11 ± 3.5 h
CL/F ([2]; male, Sprague-Dawley, rat, po, 3.5 g/kg, inflamed rats (group M), read-out: CL/F (converted)): 2740 mL/min/kg
Vd/F [2, 3]: 1710 ± 667 L/kg
AUC(0-inf) [2, 4]: 7.4 ± 2.6 ng·h/mL
AUC(0-t) [2, 4]: 7.2 ± 2.6 ng·h/mL
MRT last [2, 4]: 4.3 ± 0.8 h
Vd/F [2, 4]: 4010 ± 1350 L/kg
AUC%Extrap ([2]; normal rats (group B)): 2.7±2.3%
AUMClast ([2]; normal rats (group B)): 31.8±14.3 h*h*ng/ml
Cmax1 ([2]; normal rats (group B)): 2.2 ± 1.2 ng/mL
Cmax2 ([2]; normal rats (group B)): 1.6 ± 0.7 ng/mL
HLλz ([2]; normal rats (group B)): 3.5 ± 1.3 h
Tmax1 ([2]; normal rats (group B)): 5.4 ± 1.8 min
Tmax2 ([2]; normal rats (group B)): 4.0 ± 0.0 h

Compound: COc1c(O[C@@H]2O[C@H](C(=O)O)[C@@H](O)[C@H](O)[C@H]2O)cc(O)c2c(=O)cc(-c3ccccc3)oc12 [wogonoside]
AUC%Extrap ([2]; inflamed rats (group M)): 17.3±13.8%
AUCinf ([2]; inflamed rats (group M)): 8380.9 ± 1944.5 ng·h/mL
AUClast ([2]; inflamed rats (group M)): 6870.4 ± 1786.5 ng·h/mL
AUMClast ([2]; inflamed rats (group M)): 92756.1±44786.8 h*h*ng/ml
CL/F ([2]; inflamed rats (group M)): 190 ± 45 mL/min/kg
Cmax1 ([2]; inflamed rats (group M)): 571.9 ± 183.4 ng/mL
Cmax2 ([2]; inflamed rats (group M)): 323.9 ± 52.5 ng/mL
HLλz ([2]; inflamed rats (group M)): 12.2 ± 5.9 h
MRTlast ([2]; inflamed rats (group M)): 12.9 ± 3.0 h
Tmax1 ([2]; inflamed rats (group M)): 9.6 ± 4.8 min
Tmax2 ([2]; inflamed rats (group M)): 8.7 ± 3.0 h
Vz/F ([2]; inflamed rats (group M)): 188.6 ± 72.3 L/kg
AUC%Extrap ([2]; normal rats (group B)): 9.6±6.6%
AUCinf ([2]; normal rats (group B)): 3615.4 ± 872.3 ng·h/mL
AUClast ([2]; normal rats (group B)): 3302.3 ± 975.1 ng·h/mL
AUMClast ([2]; normal rats (group B)): 15357.0±3545.6 h*h*ng/ml
CL/F ([2]; normal rats (group B)): 442 ± 117 mL/min/kg
Cmax1 ([2]; normal rats (group B)): 492.9 ± 152.9 ng/mL
Cmax2 ([2]; normal rats (group B)): 517.7 ± 173.8 ng/mL
HLλz ([2]; normal rats (group B)): 3.0 ± 1.0 h
MRTlast ([2]; normal rats (group B)): 4.7 ± 0.5 h
Tmax1 ([2]; normal rats (group B)): 6.6 ± 2.4 min
Tmax2 ([2]; normal rats (group B)): 4.3 ± 0.8 h
Vz/F ([2]; normal rats (group B)): 118.7 ± 58.0 L/kg

Next, values leading:

hepatic clearance rate (HCR) [1]: -43.7%
Compound: COC(=O)C1=CO[C@@H](O[C@@H]2O[C@H](CO)[C@@H](O)[C@H](O)[C@H]2O)[C@H]2[C@@H]1C=C[C@@]2(O)CO [I1, gardenoside]

hepatic clearance rate (HCR) [1]: approximately zero
Compound: COC(=O)C1=CO[C@@H](O[C@@H]2O[C@H](CO)[C@@H](O)[C@H](O)[C@H]2O)[C@@H]2C(CO)=C[C@@H](O)[C@H]12 [I2, scandoside methyl ester]

hepatic clearance rate (HCR) [1]: -156.6%
Compound: COC(=O)C1=CO[C@@H](O[C@@H]2O[C@H](CO[C@@H]3O[C@H](CO)[C@@H](O)[C@H](O)[C@H]3O)[C@@H](O)[C@H](O)[C@H]2O)[C@@H]2C(CO)=CC[C@H]12 [I3, genipin-1-gentiobioside]
